Experimental data: patent US9102614B2, “Naphth-2-ylacetic acid derivatives to treat AIDS” (Gilead Sciences, Inc., priority 2010, dated 2015)

system: HIV-IIIb; test: Test A: Antiviral Assays in MT4 Cells; assay type: cell-based; conditions: Human immunodeficiency virus 1, IIIB, MT4, 120 h, MT-4 cells infected with HIV-IIIb (0.004 m.o.i.), 5 days of incubation, CellTiter-Glo chemiluminescence readout; read-out: EC50
Description: Test A: Antiviral Assays in MT4 Cells
For the antiviral assay utilizing MT-4 cells, 0.4 μL of […] test concentration of 3-fold serially diluted compound in DMSO was added to 40 μL of cell growth medium (RPMI 1640, 10% FBS, 1% penicillin/Streptomycin, 1% L-Glutamine, 1% HEPES) in each well of 384-well assay plates (10 concentrations) in quadruplicate.
1 mL aliquots of 2×10e6 MT-4 cells are pre-infected for 1 and 3 hrs respectively, @37° C. with 25 μL (MT4) or of either cell growth medium (mock-infected) or a fresh 1:250 dilution of an HIV-IIIb concentrated ABI stock (0.004 m.o.i. for MT4 cells). Infected and uninfected cells are diluted in cell growth medium and 35 uL of 2000 (for MT4) cells is added to each well of the assay plates.
Assay plates were then incubated in a 37° C. incubator. After 5 days of incubation, 25 μl of 2× concentrated CellTiter-Glo™ Reagent (catalog #G7573, Promega Biosciences, Inc., Madison, Wis.) was added to each well of the assay plate. Cell lysis was carried out by incubating at room temperature for 2-3 min and then chemiluminescence was read using the Envision reader (PerkinElmer).

In order of falling EC50:
1. CCc1cc2cc(C)c([C@H](OC(C)(C)C)C(=O)O)c(-c3ccc4c5c(ccnc35)CCO4)c2cc1F (atropisomer, axis not shown) [Compound 165]  53 µM
2. Cc1cc2c(F)cc(F)cc2c(-c2ccc3c4c(ccnc24)CCO3)c1[C@H](OC(C)(C)C)C(=O)O (atropisomer, axis not shown) [Compound 172]  50 µM
3. Cc1cc2cc(C(N)=O)c(F)cc2c(-c2ccc3c4c(ccnc24)CCO3)c1[C@H](OC(C)(C)C)C(=O)O (atropisomer, axis not shown) [Compound 168]  45 µM
4. Cc1cc2cc(Cl)c(F)cc2c(-c2ccc3c4c(ccnc24)CCO3)c1[C@H](OC(C)(C)C)C(=O)O (atropisomer, axis not shown) [Compound 171]  36 µM
5. Cc1cc2c(C#N)cc(F)cc2c(-c2ccc3c4c(ccnc24)CCO3)c1[C@H](OC(C)(C)C)C(=O)O (atropisomer, axis not shown) [Compound 154]  29 µM
6. Cc1cc2c(C(N)=O)cc(F)cc2c(-c2ccc3c4c(ccnc24)CCO3)c1[C@H](OC(C)(C)C)C(=O)O (atropisomer, axis not shown) [Compound 155]  29 µM
7. Cc1cc2cc(C(C)C)c(F)cc2c(-c2ccc3c4c(ccnc24)CCO3)c1[C@H](OC(C)(C)C)C(=O)O (atropisomer, axis not shown) [Compound 167]  29 µM
8. Cc1cc2cc(C3CC3)c(F)cc2c(-c2ccc3c4c(ccnc24)CCO3)c1[C@H](OC(C)(C)C)C(=O)O (atropisomer, axis not shown) [Compound 170]  29 µM
9. Cc1cc2cc(C(F)F)c(F)cc2c(-c2ccc3c4c(ccnc24)CCO3)c1[C@H](OC(C)(C)C)C(=O)O (atropisomer, axis not shown) [Compound 164]  25 µM
10. Cc1cc2cc(C#N)c(F)cc2c(-c2ccc3c4c(ccnc24)CCO3)c1[C@H](OC(C)(C)C)C(=O)O (atropisomer, axis not shown) [Compound 169]  18 µM
11. CNC(=O)c1cc2cc(C)c([C@H](OC(C)(C)C)C(=O)O)c(-c3ccc4c5c(ccnc35)CCO4)c2cc1F (atropisomer, axis not shown) [Compound 166]  16 µM
12. Cc1cc2c(-c3cncnc3)cc(F)cc2c(-c2ccc3c4c(ccnc24)CCO3)c1[C@H](OC(C)(C)C)C(=O)O (atropisomer, axis not shown) [Compound 153]  11 µM
13. Cc1cc2c(Cl)c(C)ccc2c(-c2ccc3c4c(ccnc24)CCO3)c1[C@H](OC(C)(C)C)C(=O)O (atropisomer, axis not shown) [Compound 151]  0.85 µM
14. Cc1cc2c(C#N)c(C)ccc2c(-c2ccc3c4c(ccnc24)CCO3)c1[C@H](OC(C)(C)C)C(=O)O (atropisomer, axis not shown) [Compound 118, (S)-2-tert-Butoxy-2-((R)-5-cyano-1-(2,3-dihydropyrano[4,3,2-de]quinolin-7-yl)-3,6-dimethylnaphthalen-2-yl)acetic acid]  0.036 µM
15. CCc1ccc2c(-c3ccc4c5c(ccnc35)CCO4)c([C@H](OC(C)(C)C)C(=O)O)c(C)cc2c1F (atropisomer, axis not shown) [Compound 120, (S)-2-tert-Butoxy-2-((R)-1-(2,3-dihydropyrano[4,3,2-de]quinolin-7-yl)-6-ethyl-5-fluoro-3-methylnaphthalen-2-yl)acetic acid]  0.032 µM

same assay, conditions: MT-4 cells infected with HIV-IIIb (0.004 m.o.i.), 5 days of incubation, CellTiter-Glo chemiluminescence readout; read-out: EC50

In order of falling EC50:
1. Cc1cc2cc(C)c([C@H](OC(C)(C)C)C(=O)O)c(-c3ccc4c5c(ccnc35)CCO4)c2cc1F (atropisomer, axis not shown) [Compound 156]  7.3 µM
2. Cc1cc2c(F)c(Cl)ccc2c(-c2ccc3c4c(ccnc24)CCO3)c1[C@H](OC(C)(C)C)C(=O)O (atropisomer, axis not shown) [Compound 152]  5.8 µM
3. Cc1cc2ccccc2c(-c2cc(F)cc3cccnc23)c1[C@H](OC(C)(C)C)C(=O)O (atropisomer, axis not shown) [Compound 9, (S)-2-tert-Butoxy-2-(1-((R)-6-fluoroquinolin-8-yl)-3-methylnaphthalen-2-yl)acetic acid]  1.3 µM
